Measurements taken from EP4813991A1 (iLeadBMS Co., Ltd., priority 2023, dated 2025).
Like-named read-outs stand apart in the source and are kept apart here.

Legend:
[1] = tested on: MDA-MB-231 breast cancer cells; experiment: Proliferation inhibitory activity assay against MDA-MB-231 breast cancer cells; format: cell-based; settings: Homo sapiens, 72 hours, CellTiter Glo, relative IC50
Experimental: Experiments were performed using the MDA-MB-231 breast cancer cell line to measure the cell proliferation inhibitory ability of each Example compound. MDA-MB-231 cells were dispensed into a 96-well plate at 100 µL of cell suspension per well using L-15 (Invitrogen) medium containing 10 % FBS, followed by incubation in a cell incubator at 37 °C and 0 % CO2. The next day, each Example compound dissolved and diluted in DMSO across 9 concentration ranges and a DMSO control group were treated on the cells for 72 hours. After the compound treatment was completed, 100 µL of CellTiter Glo (Promega) reagent was added to each well of the 96-well plate, followed by shaking for 10 minutes and standing at room temperature for 10 minutes. Luminescence signals were measured after inserting the 96-well plate into an Envision plate reader (PerkinElmer). Relative IC50 values were calculated by fitting a dose-response curve using XLfit (IDBS Ltd) software.
The breast cancer cell proliferation inhibitory activities of the Example compounds measured by the above method were evaluated according to the following criteria, and the results are presented in Table 13.

[2] = target: T1, CDK12 (Homo sapiens, UniProt Q9NYV4); experiment: Cellular CDK12 inhibitory activity assay (Ser2 phosphorylation of RNA polymerase II subunit B1 CTD in MDA-MB-231 cells); format: cell-based; set-up: using MDA-MB-231 breast cancer cells; endogenous in cells; host or cells: MDA-MB-231; settings: MDA-MB-231 cells, 6 hours treatment; read-out: pRpbl CTD S2 IC50
Experimental: MDA-MB-231 cells were dispensed into a 96-well plate at 100 µL of cell suspension per well using L-15 (Invitrogen) medium containing 10 % FBS, followed by overnight incubation in a cell incubator at 37 °C and 0 % CO2. The next day, each Example compound dissolved in DMSO across 9 concentration ranges and a DMSO control group were treated on the MDA-MB-231 cells at 37 °C and 0 % CO2 for 6 hours. After the compound treatment, the medium in the 96-well plate was removed, and 60 µL of a fixing solution (4.0 % paraformaldehyde in PBS) was added to each well, followed by standing for 20 minutes. After removing the fixing solution and washing with PBS, 60 µL of PBS containing 0.1 % Triton X-100 was dispensed into each well, followed by shaking at room temperature for 15 minutes. After washing with PBS, 100 µL of blocking buffer was added, followed by shaking at room temperature for 1 hour. After removing the blocking buffer, primary antibodies, which are RNA polymerase II subunit B1 phospho-Ser2 (1:500, Cell signaling technology) and RNA polymerase II subunit B1 carboxy-terminal domain (1:200, Cell signaling technology), were added at 60 µL per well and reacted overnight at 4 °C. After adding 150 µL of PBS containing 0.1 % Triton X-100 and washing at least twice by shaking at room temperature for 5 minutes, 60 µL of a secondary antibody was added, followed by shaking at room temperature for 1 hour while blocking light. After adding 150 µL of PBS containing 0.1 % Triton X-100 and washing at least twice by shaking at room temperature for 5 minutes, 150 µL of PBS was added again, followed by washing at least twice by shaking at room temperature for 5 minutes. The plate was scanned using a Li-COR Odyssey machine with the wells filled with PBS. IC50 values were calculated by fitting a dose-response curve using a 4-parameter model of Prism (Graphpad) software.

[3] = target: CDK13 (Homo sapiens, UniProt Q14004); experiment: CDK13 kinase inhibitory activity assay (33P-ATP filter binding); format: biochemical
Experimental: (§1) Before initiating the CDK12 and CDK13 kinase reactions, each Example compound was dissolved and diluted in DMSO as a solvent across 9 concentration ranges at room temperature. The diluted solutions were then incubated with a mixture of kinase and substrate (and cofactors, if required) for 20 minutes. Next, radioisotope-labeled ATP (^33P-gamma-ATP) was added to proceed with the kinase reaction at room temperature for 120 minutes. After the reaction was completed, the reaction mixture was transferred to a filter paper that binds the radioisotope-labeled catalytic product (^33P-substrate). Unreacted ^33P-ATP was removed by washing with 0.75 % phosphoric acid, and then the radioactive phosphorylated substrate remaining on the filter paper was measured. Kinase activity data were expressed as a percentage of the kinase activity remaining in the test sample compared to a DMSO control group. The half-maximal inhibitory concentration (IC50) for each kinase was calculated using Prism (Graphpad) software.

[4] = target: T1, CDK12; experiment: CDK12 kinase inhibitory activity assay (33P-ATP filter binding); format: biochemical; settings: kinase reaction 120 minutes, 33P-gamma-ATP; read-out: CDK12 IC50
Experimental: as §1

[5] = kinase reaction 120 minutes, 33P-gamma-ATP, read-out: CDK13 IC50

CDK13, sequence (Q14004 whole entry, species assumed): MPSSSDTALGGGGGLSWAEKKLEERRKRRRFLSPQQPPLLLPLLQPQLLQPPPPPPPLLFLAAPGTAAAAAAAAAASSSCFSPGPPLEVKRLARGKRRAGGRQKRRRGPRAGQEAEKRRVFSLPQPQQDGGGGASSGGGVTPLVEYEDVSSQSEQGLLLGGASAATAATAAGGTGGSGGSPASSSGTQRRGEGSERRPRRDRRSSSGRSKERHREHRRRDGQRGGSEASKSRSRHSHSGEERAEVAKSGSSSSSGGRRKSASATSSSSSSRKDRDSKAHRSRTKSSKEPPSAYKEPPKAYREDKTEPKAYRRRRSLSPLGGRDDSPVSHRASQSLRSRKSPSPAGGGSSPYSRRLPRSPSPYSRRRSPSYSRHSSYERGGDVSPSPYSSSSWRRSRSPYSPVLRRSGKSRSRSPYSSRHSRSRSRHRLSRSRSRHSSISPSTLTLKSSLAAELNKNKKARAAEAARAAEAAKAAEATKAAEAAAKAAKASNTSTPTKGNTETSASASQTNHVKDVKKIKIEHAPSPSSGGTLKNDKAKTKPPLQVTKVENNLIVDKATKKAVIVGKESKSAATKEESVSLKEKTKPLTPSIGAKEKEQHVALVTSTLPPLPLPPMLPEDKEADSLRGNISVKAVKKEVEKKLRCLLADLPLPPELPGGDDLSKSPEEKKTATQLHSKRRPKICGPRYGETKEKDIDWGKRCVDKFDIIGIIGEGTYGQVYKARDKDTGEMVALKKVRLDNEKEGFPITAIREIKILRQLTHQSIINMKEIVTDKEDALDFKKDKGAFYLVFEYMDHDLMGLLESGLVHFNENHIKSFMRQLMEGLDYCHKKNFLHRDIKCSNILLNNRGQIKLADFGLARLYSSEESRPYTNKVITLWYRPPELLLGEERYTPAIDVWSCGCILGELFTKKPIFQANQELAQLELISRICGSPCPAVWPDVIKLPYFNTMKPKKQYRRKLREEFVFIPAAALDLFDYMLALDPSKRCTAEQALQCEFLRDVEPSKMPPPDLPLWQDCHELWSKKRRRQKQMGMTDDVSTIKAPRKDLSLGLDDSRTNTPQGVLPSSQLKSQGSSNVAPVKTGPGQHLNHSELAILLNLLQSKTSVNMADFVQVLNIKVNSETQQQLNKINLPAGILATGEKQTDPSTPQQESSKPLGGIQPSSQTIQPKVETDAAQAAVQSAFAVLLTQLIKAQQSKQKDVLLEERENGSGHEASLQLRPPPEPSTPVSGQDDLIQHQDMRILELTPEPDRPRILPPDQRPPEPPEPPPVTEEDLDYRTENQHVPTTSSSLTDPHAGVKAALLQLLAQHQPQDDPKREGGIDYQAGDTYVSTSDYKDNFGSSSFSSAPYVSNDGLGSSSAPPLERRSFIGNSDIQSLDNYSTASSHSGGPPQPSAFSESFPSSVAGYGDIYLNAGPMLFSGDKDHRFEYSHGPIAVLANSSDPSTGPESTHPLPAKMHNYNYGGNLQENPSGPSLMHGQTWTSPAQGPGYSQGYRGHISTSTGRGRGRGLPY
CDK13, sequence (O75909 whole entry partner, species assumed): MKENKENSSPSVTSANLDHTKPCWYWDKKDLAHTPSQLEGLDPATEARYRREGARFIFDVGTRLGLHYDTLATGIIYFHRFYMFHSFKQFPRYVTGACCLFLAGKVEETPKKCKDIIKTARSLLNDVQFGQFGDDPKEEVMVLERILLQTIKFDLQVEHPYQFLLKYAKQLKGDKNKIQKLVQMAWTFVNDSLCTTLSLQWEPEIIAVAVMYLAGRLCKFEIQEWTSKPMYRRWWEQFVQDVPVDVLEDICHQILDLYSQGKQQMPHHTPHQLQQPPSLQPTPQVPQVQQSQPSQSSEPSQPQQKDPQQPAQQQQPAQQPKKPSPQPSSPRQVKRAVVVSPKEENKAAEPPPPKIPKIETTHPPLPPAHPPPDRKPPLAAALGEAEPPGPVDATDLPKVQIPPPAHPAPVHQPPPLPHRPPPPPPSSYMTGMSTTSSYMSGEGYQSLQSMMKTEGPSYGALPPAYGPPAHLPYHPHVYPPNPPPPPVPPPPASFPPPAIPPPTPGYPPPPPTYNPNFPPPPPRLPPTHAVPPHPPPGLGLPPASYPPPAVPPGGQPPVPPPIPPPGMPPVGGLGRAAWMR
T1 sequence (Q9NYV4 whole entry, species assumed): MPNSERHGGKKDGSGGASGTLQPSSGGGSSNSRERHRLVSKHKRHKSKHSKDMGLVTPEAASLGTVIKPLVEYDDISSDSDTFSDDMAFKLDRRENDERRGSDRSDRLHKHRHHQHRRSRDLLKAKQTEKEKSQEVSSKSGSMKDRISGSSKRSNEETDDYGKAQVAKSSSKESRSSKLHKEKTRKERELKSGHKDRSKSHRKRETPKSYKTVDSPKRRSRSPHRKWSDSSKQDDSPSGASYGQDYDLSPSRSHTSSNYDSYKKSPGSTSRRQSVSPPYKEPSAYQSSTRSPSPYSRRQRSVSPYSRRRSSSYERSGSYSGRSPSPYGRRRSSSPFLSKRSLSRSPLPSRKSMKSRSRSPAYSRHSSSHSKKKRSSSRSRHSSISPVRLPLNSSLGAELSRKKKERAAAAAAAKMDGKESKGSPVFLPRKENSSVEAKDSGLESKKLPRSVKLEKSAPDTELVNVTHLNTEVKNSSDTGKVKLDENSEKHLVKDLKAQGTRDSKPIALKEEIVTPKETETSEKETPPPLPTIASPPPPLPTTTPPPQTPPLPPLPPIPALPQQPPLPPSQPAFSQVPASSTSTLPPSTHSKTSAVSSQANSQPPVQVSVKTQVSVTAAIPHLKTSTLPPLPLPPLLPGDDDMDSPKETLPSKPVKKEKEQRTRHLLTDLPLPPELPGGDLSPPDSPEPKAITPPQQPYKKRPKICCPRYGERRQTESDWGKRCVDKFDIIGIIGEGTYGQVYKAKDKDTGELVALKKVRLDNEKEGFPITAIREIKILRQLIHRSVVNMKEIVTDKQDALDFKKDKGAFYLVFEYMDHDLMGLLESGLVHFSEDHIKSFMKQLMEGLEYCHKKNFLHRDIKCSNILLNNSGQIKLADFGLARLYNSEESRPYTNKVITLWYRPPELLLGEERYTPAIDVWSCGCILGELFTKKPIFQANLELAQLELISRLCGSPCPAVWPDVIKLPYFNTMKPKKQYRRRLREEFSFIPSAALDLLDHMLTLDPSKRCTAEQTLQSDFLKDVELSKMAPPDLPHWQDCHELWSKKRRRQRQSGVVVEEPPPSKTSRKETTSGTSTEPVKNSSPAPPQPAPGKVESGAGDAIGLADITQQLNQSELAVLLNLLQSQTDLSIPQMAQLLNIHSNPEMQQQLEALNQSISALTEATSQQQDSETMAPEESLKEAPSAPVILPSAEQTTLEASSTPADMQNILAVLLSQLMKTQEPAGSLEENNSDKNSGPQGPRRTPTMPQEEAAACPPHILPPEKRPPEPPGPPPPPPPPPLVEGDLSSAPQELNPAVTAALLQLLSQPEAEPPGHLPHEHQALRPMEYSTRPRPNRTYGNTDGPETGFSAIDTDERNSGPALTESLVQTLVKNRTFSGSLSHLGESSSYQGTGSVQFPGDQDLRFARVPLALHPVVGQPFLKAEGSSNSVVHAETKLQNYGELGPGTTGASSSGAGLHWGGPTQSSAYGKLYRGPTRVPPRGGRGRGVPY
T1 sequence (O75909 whole entry partner, species assumed): as the sequence (O75909 whole entry partner, species assumed) above

Row | SMILES | IC50 [1] | IC50 [2] | IC50 [3, 5] | IC50 [4] | IC50 [3]
1 | CC#Cc1cnc2c(NCc3nc4ccc(F)c(F)c4[nH]3)cc(N3CCOCC3)nn12 [Example 24, N-((6,7-difluoro-1H-benzo[d]imidazol-2-yl)methyl)-6-morpholino-3-(prop-1-yn-1-yl)imidazo[1,2-b]pyridazin-8-amine] | > 0.5 µM | > 3 µM | 0.1 to 0.5 µM | > 0.5 µM | 
2 | Fc1ccc2nc(CNc3cc(N4CCOCC4)nn4c(C#CC5CC5)cnc34)[nH]c2c1F [Example 25, 3-(cyclopropylethynyl)-N-((6,7-difluoro-1H-benzo[d]imidazol-2-yl)methyl)-6-morpholinoimidazo[1,2-b]pyridazin-8-amine] | > 0.5 µM | > 3 µM | > 0.5 µM | > 0.5 µM | 
3 | NC(=O)N1CCN(c2cc(NCc3nc4ccc(F)c(F)c4[nH]3)c3ncc(C(F)(F)F)n3n2)CC1 [Example 92, 4-(8-(((6,7-difluoro-1H-benzo[d]imidazol-2-yl)methyl)amino)-3-(trifluoromethyl)imidazo[1,2-b]pyridazin-6-yl)piperazine-1-carboxamide] | 0.05 to 0.5 µM | 0.3 to 3 µM |  | < 0.1 µM | < 0.1 µM
4 | CC#Cc1cnc2c(NCc3nc4ccc(F)c(F)c4[nH]3)cc(-c3cnc(N)nc3)nn12 [Example 20, 6-(2-aminopyrimidin-5-yl)-N-((6,7-difluoro-1H-benzo[d]imidazol-2-yl)methyl)-3-(prop-1-yn-1-yl)imidazo[1,2-b]pyridazin-8-amine] | 0.05 to 0.5 µM | 0.3 to 3 µM | 0.1 to 0.5 µM | > 0.5 µM | 
5 | NC(=O)C1CCN(c2cc(NCc3nc4cc(Cl)c(Cl)cc4[nH]3)c3ncc(C(F)(F)F)n3n2)CC1 [Example 67, 1-(8-(((5,6-dichloro-1H-benzo[d]imidazol-2-yl)methyl)amino)-3-(trifluoromethyl)imidazo[1,2-b]pyridazin-6-yl)piperidine-4-carboxamide] | 0.05 to 0.5 µM | < 0.3 µM | < 0.1 µM | < 0.1 µM | 
6 | FC(F)(F)c1cnc2c(NCc3nc4cc(Cl)c(Cl)cc4s3)cc(N3CCOCC3)nn12 [Example 93, N-((5,6-dichlorobenzo[d]thiazol-2-yl)methyl)-6-morpholino-3-(trifluoromethyl)imidazo[1,2-b]pyridazin-8-amine] | 0.05 to 0.5 µM | 0.3 to 3 µM | > 0.5 µM | > 0.5 µM | 
7 | FC(F)(F)c1cnc2c(NCc3nc4cc(Cl)c(Cl)cc4[nH]3)cc(N3C4CCC3CNC4)nn12 [Example 95, 6-(3,8-diazabicyclo[3.2.1]octan-8-yl)-N-((5,6-dichloro-1H-benzo[d]imidazol-2-yl)methyl)-3-(trifluoromethyl)imidazo[1,2-b]pyridazin-8-amine] | ≤ 0.05 µM | < 0.3 µM | < 0.1 µM | < 0.1 µM | 
8 | CN1C2CC1CN(c1cc(NCc3nc4cc(Cl)c(Cl)cc4[nH]3)c3ncc(C(F)(F)F)n3n1)C2 [Example 98, N-((5,6-dichloro-1H-benzo[d]imidazol-2-yl)methyl)-6-(6-methyl-3,6-diazabicyclo[3.1.1]heptan-3-yl)-3-(trifluoromethyl)imidazo[1,2-b]pyridazin-8-amine] | ≤ 0.05 µM | < 0.3 µM | < 0.1 µM | < 0.1 µM | 
9 | Fc1ccc2nc(CNc3cc(N4CCOCC4)nn4c(CC(F)(F)F)cnc34)[nH]c2c1F [Example 2, N-((6,7-difluoro-1H-benzo[d]imidazol-2-yl)methyl)-6-morpholino-3-(2,2,2-trifluoroethyl)imidazo[1,2-b]pyridazin-8-amine] | 0.05 to 0.5 µM | 0.3 to 3 µM |  | 0.1 to 0.5 µM | 0.1 to 0.5 µM

The remaining lines, values ahead:

Row | IC50 [1] | IC50 [2] | IC50 [3, 5] | IC50 [4] | IC50 [3] | SMILES
10 | ≤ 0.05 µM | < 0.3 µM | < 0.1 µM | < 0.1 µM |  | O=C(CO)N1CCN(c2cc(NCc3nc4cc(Cl)c(Cl)cc4[nH]3)c3ncc(C(F)(F)F)n3n2)CC1 [Example 102, 1-(4-(8-(((5,6-dichloro-1H-benzo[d]imidazol-2-yl)methyl)amino)-3-(trifluoromethyl)imidazo[1,2-b]pyridazin-6-yl)piperazin-1-yl)-2-hydroxyethan-1-one]
11 | 0.05 to 0.5 µM | 0.3 to 3 µM | < 0.1 µM | < 0.1 µM |  | FC(F)(F)c1cnc2c(NCc3nc4ccncc4[nH]3)cc(N3CCOCC3)nn12 [Example 74, N-((3H-imidazo[4,5-c]pyridin-2-yl)methyl)-6-morpholino-3-(trifluoromethyl)imidazo[1,2-b]pyridazin-8-amine]
12 | 0.05 to 0.5 µM | 0.3 to 3 µM | 0.1 to 0.5 µM | 0.1 to 0.5 µM |  | OC1(C2CN(c3cc(NCc4nc5cc(Cl)c(Cl)cc5[nH]4)c4ncc(C(F)(F)F)n4n3)C2)CC1 [Example 50, 1-(1-(8-(((5,6-dichloro-1H-benzo[d]imidazol-2-yl)methyl)amino)-3-(trifluoromethyl)imidazo[1,2-b]pyridazin-6-yl)azetidin-3-yl)cyclopropan-1-ol]
13 | ≤ 0.05 µM | < 0.3 µM | < 0.1 µM | 0.1 to 0.5 µM |  | FC(F)(F)c1cnc2c(NCc3nc4cc(Cl)c(Cl)cc4[nH]3)cc(N3CC4(CNC4)C3)nn12 [Example 45, N-((5,6-dichloro-1H-benzo[d]imidazol-2-yl)methyl)-6-(2,6-diazaspiro[3.3]heptan-2-yl)-3-(trifluoromethyl)imidazo[1,2-b]pyridazin-8-amine]
14 | ≤ 0.05 µM | < 0.3 µM | 0.1 to 0.5 µM | 0.1 to 0.5 µM |  | N#CC1(O)CCN(c2cc(NCc3nc4cc(Cl)c(Cl)cc4[nH]3)c3ncc(C(F)(F)F)n3n2)C1 (centres unmarked) [Example 61, 1-(8-(((5,6-dichloro-1H-benzo[d]imidazol-2-yl)methyl)amino)-3-(trifluoromethyl)imidazo[1,2-b]pyridazin-6-yl)-3-hydroxypyrrolidine-3-carbonitrile]
15 | 0.05 to 0.5 µM | 0.3 to 3 µM |  | > 0.5 µM | 0.1 to 0.5 µM | CC(C)c1cnc2c(NCc3nc4ccc(F)c(F)c4[nH]3)cc(N3CCOCC3)nn12 [Example 3, N-((6,7-difluoro-1H-benzo[d]imidazol-2-yl)methyl)-3-isopropyl-6-morpholinoimidazo[1,2-b]pyridazin-8-amine]
16 | ≤ 0.05 µM | < 0.3 µM | < 0.1 µM | < 0.1 µM |  | N#CC1CCN(c2cc(NCc3nc4cc(Cl)c(Cl)cc4[nH]3)c3ncc(C(F)(F)F)n3n2)C1 (centres unmarked) [Example 49, 1-(8-(((5,6-dichloro-1H-benzo[d]imidazol-2-yl)methyl)amino)-3-(trifluoromethyl)imidazo[1,2-b]pyridazin-6-yl)pyrrolidine-3-carbonitrile]
17 | ≤ 0.05 µM | < 0.3 µM | < 0.1 µM | < 0.1 µM |  | Fc1ccc2nc(CNc3cc(N4CCOCC4)nn4c(C(F)(F)F)cnc34)[nH]c2c1F [Example 6, N-((6,7-difluoro-1H-benzo[d]imidazol-2-yl)methyl)-6-morpholino-3-(trifluoromethyl)imidazo[1,2-b]pyridazin-8-amine]
